Source: ChEMBL document CHEMBL6120974, “Hydrazide-Based Class I Selective HDAC Inhibitors Completely Reverse Chemoresistance Synergistically in Platinum-Resistant Solid Cancer Cells” (J Med Chem, 2024)
pIC50: −log10 of the molar value. One block for each compound: values may come before it. Activity calls are given as the source filed them. No cut-off for these calls is given here.

Assays:
[1] = test system: CAL-27; test: Induction of apoptosis in human CAL-27 cells assessed as caspase-3/7 activation at 0.5 uM incubated for 48 hrs by capase3/7 green dye based analysis relative to control; format: functional
[2] = Induction of apoptosis in cisplatin resistant human Cal27CisR cells assessed as caspase-3/7 activation at 0.5 uM incubated for 48 hrs by capase3/7 green dye based analysis relative to control; format: functional
[3] = test system: HL-60; test: cells; conditions: Homo sapiens, HL-60, 72 h
[4] = test system: CAL-27; test: cells; conditions: Homo sapiens, CAL-27, 72 h
[5] = cells; conditions: Homo sapiens, Cal27CisR, 72 h
[6] = test system: A2780cisR; test: Induction of apoptosis in cisplatin resistant human A2780 cisR cells assessed as caspase-3/7 activation at 2 uM incubated for 48 hrs by capase3/7 green dye based analysis relative to control; format: functional
[7] = test system: A2780; test: Induction of apoptosis in human A2780 cells assessed as caspase-3/7 activation at 2 uM incubated for 48 hrs by capase3/7 green dye based analysis relative to control; format: functional
[8] = test system: MV4-11; test: cells; conditions: Homo sapiens, MV4-11, 72 h
[9] = Cytotoxicity against human HEK293 cells assessed as reduction in cell viability incubated for 72 hrs by MTT assay; format: toxicity, cell-based
[10] = test system: A2780cisR; test: cells; conditions: Homo sapiens, 72 h
[11] = target: T1, Histone deacetylase 4 (Homo sapiens, UniProt P56524); test: Inhibition of FLAG tagged full length human HDAC4 expressed in HEK293T cells using acyl-H3K9 peptide as substrate preincubated with compound for 20 mins followed by substrate addition and measured after 120 mins by HPLC analysis
T1 sequence (P56524 whole entry): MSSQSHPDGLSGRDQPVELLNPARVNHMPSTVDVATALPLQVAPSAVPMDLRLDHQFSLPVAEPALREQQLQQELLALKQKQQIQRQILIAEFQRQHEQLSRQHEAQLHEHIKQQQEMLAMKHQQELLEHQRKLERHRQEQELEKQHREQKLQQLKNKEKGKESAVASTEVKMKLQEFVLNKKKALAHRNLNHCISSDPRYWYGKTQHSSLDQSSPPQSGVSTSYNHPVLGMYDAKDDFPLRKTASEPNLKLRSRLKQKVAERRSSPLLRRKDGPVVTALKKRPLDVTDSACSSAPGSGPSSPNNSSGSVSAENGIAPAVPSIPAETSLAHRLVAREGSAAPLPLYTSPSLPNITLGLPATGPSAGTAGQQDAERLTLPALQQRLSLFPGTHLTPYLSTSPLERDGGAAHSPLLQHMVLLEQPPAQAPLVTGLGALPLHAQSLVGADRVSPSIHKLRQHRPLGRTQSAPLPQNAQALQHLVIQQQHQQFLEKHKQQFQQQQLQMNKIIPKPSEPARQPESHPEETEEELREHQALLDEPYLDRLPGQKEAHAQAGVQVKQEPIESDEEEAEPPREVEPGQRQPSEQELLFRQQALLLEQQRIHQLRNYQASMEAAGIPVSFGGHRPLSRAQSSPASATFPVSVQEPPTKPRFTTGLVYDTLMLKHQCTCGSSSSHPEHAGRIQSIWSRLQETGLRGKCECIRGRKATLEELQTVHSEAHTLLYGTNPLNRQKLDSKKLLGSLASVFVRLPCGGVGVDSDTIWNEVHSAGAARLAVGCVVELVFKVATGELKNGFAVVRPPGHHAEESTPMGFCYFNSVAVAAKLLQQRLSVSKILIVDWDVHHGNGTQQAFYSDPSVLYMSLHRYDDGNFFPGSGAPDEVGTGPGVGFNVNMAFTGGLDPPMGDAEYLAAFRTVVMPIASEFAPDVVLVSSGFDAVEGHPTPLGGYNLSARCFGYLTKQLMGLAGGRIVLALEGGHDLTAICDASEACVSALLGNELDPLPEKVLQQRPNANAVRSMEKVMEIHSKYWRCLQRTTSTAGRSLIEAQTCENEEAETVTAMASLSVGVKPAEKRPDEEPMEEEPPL

[12] = target: T2, Histone deacetylase 8 (Homo sapiens, UniProt Q9BY41); test: Inhibition of FLAG tagged full length human HDAC8 expressed in HEK293T cells using acyl-H3K9 peptide as substrate preincubated with compound for 20 mins followed by substrate addition and measured after 120 mins by HPLC analysis; format: cell-based
T2 sequence (Q9BY41 whole entry): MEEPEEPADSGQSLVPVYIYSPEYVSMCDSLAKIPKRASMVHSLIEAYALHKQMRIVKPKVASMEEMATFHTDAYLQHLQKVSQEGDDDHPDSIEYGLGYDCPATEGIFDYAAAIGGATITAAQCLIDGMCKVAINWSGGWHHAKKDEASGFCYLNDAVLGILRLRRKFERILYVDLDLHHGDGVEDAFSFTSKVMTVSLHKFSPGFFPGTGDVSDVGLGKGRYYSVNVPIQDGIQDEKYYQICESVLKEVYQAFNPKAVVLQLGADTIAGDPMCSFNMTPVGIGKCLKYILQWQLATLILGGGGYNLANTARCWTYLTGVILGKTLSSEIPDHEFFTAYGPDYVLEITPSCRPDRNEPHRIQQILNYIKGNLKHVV

[13] = target: T3, Histone deacetylase 1 (Homo sapiens, UniProt Q13547); test: Inhibition of FLAG tagged full length human HDAC1 expressed in HEK293T cells using acyl-H3K9 peptide as substrate preincubated with compound for 20 mins followed by substrate addition and measured after 120 mins by HPLC analysis
T3 sequence (Q13547 whole entry): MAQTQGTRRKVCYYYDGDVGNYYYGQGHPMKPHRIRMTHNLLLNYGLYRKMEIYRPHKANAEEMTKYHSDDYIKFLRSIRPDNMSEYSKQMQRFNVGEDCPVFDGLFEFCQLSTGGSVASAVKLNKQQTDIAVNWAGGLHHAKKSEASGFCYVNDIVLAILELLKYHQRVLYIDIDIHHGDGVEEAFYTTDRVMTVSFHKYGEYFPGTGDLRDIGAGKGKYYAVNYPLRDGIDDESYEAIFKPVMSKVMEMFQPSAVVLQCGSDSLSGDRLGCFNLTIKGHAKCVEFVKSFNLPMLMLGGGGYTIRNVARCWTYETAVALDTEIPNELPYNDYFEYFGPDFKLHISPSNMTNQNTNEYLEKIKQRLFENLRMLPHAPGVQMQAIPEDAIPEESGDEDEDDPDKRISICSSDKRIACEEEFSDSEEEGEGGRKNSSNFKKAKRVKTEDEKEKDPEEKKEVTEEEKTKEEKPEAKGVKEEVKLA

[14] = target: Histone deacetylase 3 (Homo sapiens, UniProt O15379); test: Inhibition of HDAC3 (unknown origin)
Sequence of Histone deacetylase 3 (O15379 whole entry): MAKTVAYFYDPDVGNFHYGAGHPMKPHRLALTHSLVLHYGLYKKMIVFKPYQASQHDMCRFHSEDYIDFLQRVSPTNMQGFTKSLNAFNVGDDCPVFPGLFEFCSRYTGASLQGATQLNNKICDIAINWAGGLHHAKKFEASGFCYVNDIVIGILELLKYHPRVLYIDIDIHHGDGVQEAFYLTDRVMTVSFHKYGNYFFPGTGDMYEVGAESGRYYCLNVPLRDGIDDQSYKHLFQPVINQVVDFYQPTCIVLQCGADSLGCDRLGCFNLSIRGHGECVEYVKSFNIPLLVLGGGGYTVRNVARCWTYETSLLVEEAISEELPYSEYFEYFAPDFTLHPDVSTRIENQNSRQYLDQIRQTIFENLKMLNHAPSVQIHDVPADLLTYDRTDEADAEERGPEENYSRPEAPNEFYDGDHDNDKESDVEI

[15] = Lipophilicity, logD of the compound in 1-octanol/PBS buffer at pH 7.4 by HPLC/UV analysis; format: physicochemical; conditions: octanol/water
[16] = target: T3, Histone deacetylase 1; test: (§1) Inhibition of C-terminal 6-his/FLAG tagged full length human recombinant HDAC1 (1 to 482 end residues) expressed in sf9 cells at 10 uM using ZMAL (Z-Lys(Ac)-AMC as fluorogenic substrate preincubated with compound for 60 mins followed by substrate addition and measured after 90 mins by fluorescence based microplate reader analysis relative to control; conditions: time 150.0 min
[17] = test system: A2780 cisR; test: Inhibition of class I/6 HDAC (unknown origin) in cisplatin resistant human A2780 cisR cells at < 10 uM using Boc-Lys(epsilon-Ac)-AMC as substrate preincubated with compound for 18 hrs followed by substrate addition and measured after 3 hrs by NOVOstar microplate reader analysis; format: cell-based
[18] = test system: A2780; test: Inhibition of class I/6 HDAC (unknown origin) in human A2780 cells at < 10 uM using Boc-Lys(epsilon-Ac)-AMC as substrate preincubated with compound for 18 hrs followed by substrate addition and measured after 3 hrs by NOVOstar microplate reader analysis; format: cell-based
[19] = test system: Cal27CisR; test: Inhibition of class I/6 HDAC (unknown origin) in cisplatin resistant human Cal27CisR cells at < 10 uM using Boc-Lys(epsilon-Ac)-AMC as substrate preincubated with compound for 18 hrs followed by substrate addition and measured after 3 hrs by NOVOstar microplate reader analysis; format: cell-based
[20] = target: T1, Histone deacetylase 4; test: Inhibition of recombinant HDAC4 (unknown origin) using Bos-Lys(TFA)-AMC as substrate preincubated with compound for 5 mins and measured after 90 mins by NOVOstar microplate reader analysis
[21] = target: Histone deacetylase 2 (Homo sapiens) (UniProt Q92769); test: (§2) Inhibition of C-terminal FLAG tagged full length human recombinant HDAC2 (1 to 488 end residues) expressed in sf9 cells at > 10 uM using ZMAL (Z-Lys(Ac)-AMC as fluorogenic substrate preincubated with compound for 60 mins followed by substrate addition and measured after 90 mins by fluorescence based microplate reader analysis relative to control
Sequence of Histone deacetylase 2 (Homo sapiens) (Q92769 whole entry): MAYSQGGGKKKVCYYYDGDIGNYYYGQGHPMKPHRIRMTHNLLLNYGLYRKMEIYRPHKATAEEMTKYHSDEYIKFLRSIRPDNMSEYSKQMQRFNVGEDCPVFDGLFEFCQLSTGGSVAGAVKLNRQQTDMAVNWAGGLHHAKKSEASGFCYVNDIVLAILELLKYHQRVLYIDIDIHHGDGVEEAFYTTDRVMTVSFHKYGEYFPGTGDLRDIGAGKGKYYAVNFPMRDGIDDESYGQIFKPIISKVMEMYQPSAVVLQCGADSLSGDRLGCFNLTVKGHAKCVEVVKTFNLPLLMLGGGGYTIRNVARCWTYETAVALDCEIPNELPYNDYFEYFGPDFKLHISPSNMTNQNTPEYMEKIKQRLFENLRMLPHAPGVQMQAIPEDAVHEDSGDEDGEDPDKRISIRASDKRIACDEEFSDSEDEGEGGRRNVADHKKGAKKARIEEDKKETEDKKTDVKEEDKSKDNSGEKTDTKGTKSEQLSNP

[22] = target: T2, Histone deacetylase 8; test: Inhibition of recombinant HDAC8 (unknown origin) using Bos-Lys(TFA)-AMC as substrate preincubated with compound for 5 mins and measured after 90 mins by NOVOstar microplate reader analysis
[23] = target: T4, Histone deacetylase 8 (Homo sapiens) (UniProt Q9BY41); test: Inhibition of recombinant HDAC8 (unknown origin) at > 10 uM using Bos-Lys(TFA)-AMC as substrate preincubated with compound for 5 mins and measured after 90 mins by NOVOstar microplate reader analysis relative to control; conditions: time 95.0 min
T4 sequence (whole entry): T2 sequence (Q9BY41 whole entry)

[24] = target: T5, Protein deacetylase HDAC6 (Homo sapiens) (UniProt Q9UBN7); test: as §2, with “N-terminal GST-tagged” for “C-terminal FLAG tagged”, “length recombinant” for “length”, “HDAC6” for “recombinant HDAC2”, “1215” for “488”; conditions: time 150.0 min
T5 sequence (whole entry): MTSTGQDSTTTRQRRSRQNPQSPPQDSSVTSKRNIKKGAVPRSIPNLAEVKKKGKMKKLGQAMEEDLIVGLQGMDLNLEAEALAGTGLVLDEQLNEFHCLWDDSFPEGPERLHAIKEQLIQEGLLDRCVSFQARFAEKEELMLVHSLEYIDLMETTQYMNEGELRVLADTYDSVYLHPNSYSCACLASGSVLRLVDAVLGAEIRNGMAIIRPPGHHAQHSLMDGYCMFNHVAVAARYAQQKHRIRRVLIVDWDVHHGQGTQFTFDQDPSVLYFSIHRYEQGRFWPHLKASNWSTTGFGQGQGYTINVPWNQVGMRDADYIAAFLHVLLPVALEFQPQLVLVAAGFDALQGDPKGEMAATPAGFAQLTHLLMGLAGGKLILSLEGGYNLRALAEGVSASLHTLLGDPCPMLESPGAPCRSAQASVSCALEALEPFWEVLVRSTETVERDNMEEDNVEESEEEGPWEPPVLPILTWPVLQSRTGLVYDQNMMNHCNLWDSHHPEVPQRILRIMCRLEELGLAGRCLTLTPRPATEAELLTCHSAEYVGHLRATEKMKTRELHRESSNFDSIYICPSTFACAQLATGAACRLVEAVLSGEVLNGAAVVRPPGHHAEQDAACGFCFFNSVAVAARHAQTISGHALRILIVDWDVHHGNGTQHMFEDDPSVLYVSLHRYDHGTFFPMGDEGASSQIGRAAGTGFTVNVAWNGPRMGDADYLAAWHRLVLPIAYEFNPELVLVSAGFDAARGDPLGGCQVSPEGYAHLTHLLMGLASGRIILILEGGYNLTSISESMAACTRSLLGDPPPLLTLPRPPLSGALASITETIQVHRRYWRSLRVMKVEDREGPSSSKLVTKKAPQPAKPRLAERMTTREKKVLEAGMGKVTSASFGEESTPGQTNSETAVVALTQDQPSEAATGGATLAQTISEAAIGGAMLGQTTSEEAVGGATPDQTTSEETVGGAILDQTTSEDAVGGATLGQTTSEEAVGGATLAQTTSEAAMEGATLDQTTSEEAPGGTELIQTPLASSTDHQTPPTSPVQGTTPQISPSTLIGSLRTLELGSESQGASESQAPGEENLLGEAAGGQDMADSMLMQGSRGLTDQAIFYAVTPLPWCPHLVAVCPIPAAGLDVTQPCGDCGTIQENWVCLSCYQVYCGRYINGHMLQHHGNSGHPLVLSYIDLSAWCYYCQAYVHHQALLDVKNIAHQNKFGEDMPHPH

[25] = target: T6, Protein deacetylase HDAC6 (Homo sapiens, UniProt Q9UBN7); test: Inhibition of N-terminal GST-tagged full length recombinant human HDAC6 (1 to 1215 end residues) expressed in sf9 cells using ZMAL (Z-Lys(Ac)-AMC as fluorogenic substrate preincubated with compound for 60 mins followed by substrate addition and measured after 90 mins by fluorescence based microplate reader analysis
T6 sequence (Q9UBN7 whole entry): T5 sequence (whole entry)

[26] = target: Histone deacetylase 3/Nuclear receptor corepressor 2 (HDAC3/NCoR2) (Homo sapiens) (UniProt O15379+Q9Y618); test: as §1, with “His” for “6-his/FLAG”, “tagged” for “tagged full length”, “HDAC3” for “HDAC1”, “428” for “482”, “residues)/N-terminal GST-tagged human NcoR2” for “residues)”; conditions: time 150.0 min
[27] = test system: A2780; test: Cytotoxicity against human A2780 cells at < 100 uM assessed as reduction in cell viability incubated for 72 hrs by MTT assay; format: functional, cell-based
[28] = test system: CAL-27; test: Inhibition of class I/6 HDAC (unknown origin) in human CAL-27 cells at < 10 uM using Boc-Lys(epsilon-Ac)-AMC as substrate preincubated with compound for 18 hrs followed by substrate addition and measured after 3 hrs by NOVOstar microplate reader analysis; format: cell-based
[29] = test system: A2780cisR; test: Cytotoxicity against cisplatin resistant human A2780 cisR cells at < 100 uM assessed as reduction in cell viability incubated for 72 hrs by MTT assay; format: functional, cell-based
[30] = test system: CAL-27; test: Cytotoxicity against human CAL-27 cells at < 100 uM assessed as reduction in cell viability incubated for 72 hrs by MTT assay; format: functional, cell-based
[31] = test system: Cal27CisR; test: Cytotoxicity against cisplatin resistant human Cal27CisR cells at < 10 uM assessed as reduction in cell viability incubated for 72 hrs by MTT assay; format: functional, cell-based

pIC50 [3]: 6.03 | pIC50 [4]: 5.53 | pIC50 [5]: 5.44 | pIC50 [8]: 6.39 | pIC50 [10]: 5.25
SMILES: Nc1ccccc1NC(=O)c1ccc(CNC(=O)OCc2cccnc2)cc1 [ENTINOSTAT]
Activity [1]: <5% | Activity [2]: <5% | Activity [6]: 15% | Activity [7]: 10% | IC50 at 72 h [9]: 7.11 µM

pIC50 [11]: < 4.00 | pIC50 [12]: < 4.00 | pIC50 [13]: < 4.00
SMILES: CCCCCCCCCCCCCCCCNNC(=O)c1cccs1

pIC50 [14]: < 5.18 | logD [15]: 3.16
SMILES: CN(C)c1ccc(C(=O)N(CC(=O)NCc2ccccc2)Cc2ccc(C(=O)Nc3cc(-c4ccncc4)ccc3N)cc2)cc1

inhibition [16]: 37% | pIC50 [20]: < 5.00 | inhibition [21]: < 25% | pIC50 [22]: < 5.00 | inhibition [23]: < 25% | inhibition [24]: < 25% | pIC50 [25]: < 5.00 | inhibition [26]: 32%
SMILES: CN(C)c1ccc(C(=O)N(CC(=O)NCc2ccccc2)Cc2ccc(C(=O)NNC/C=C/c3ccccc3)cc2)cc1
inhibition [17]: inactive | inhibition [18]: inactive | inhibition [19]: inactive | Activity [27]: inactive | inhibition [28]: inactive | Activity [29]: inactive | Activity [30]: inactive | Activity [31]: inactive
